Usually IC50 stands for the point on the concentration scale where inhibition reaches its midpoint. Higher therefore signals a need for much substance. As a reminder, the IC90 is the concentration needed for an effect of 90%. Lower therefore signals an effect from little substance.

One data set deals with A549 NSCLC Xenograft. The data set can be described thus: A549 NSCLC xenograft model, efficacy (tumor growth inhibition). Format: in vivo, mice. The following applies: single agent. An excerpt:
For implantation in mice, A549 cells were dislodged with trypsin-EDTA, washed with 1×D-PBS, and resuspended in serum-free media. […] Tumors were allowed to establish until they were palpable and of an appropriate tumor volume (based on previous tumorigenicity studies) before initiation of treatment. Animals were randomly assigned to groups according to initial tumor volume, and the day of tumor cell inoculation was considered to be study day 0. […] The solution was then evaporated and lyophilized. […] Efficacy data was graphically represented as the mean tumor volume ±standard error of the mean (SEM). Tumor volumes of treated groups were presented as percentages of tumor volumes of the control groups (%T/C), using the formula: 100×((T-T0)/(C-C0)), where 'T' represented mean tumor volume of a treated group on a specific day during the experiment, 'T0' represented mean tumor volume of the same treated group on the first day of treatment; 'C' represented mean tumor volume of a control group on a specific day during the experiment, and C0' represented mean tumor volume of the same […] 'D' represents the large diameter of the tumor, and 'd' represents the small diameter. In some cases, tumor regression and/or percent change in tumor volume was calculated using the formula: Statistical analysis was determined by the rank sum test (SigmaStat, v.2.0, Jandel Scientific, San Francisco, Calif.).

Data set [1] in a line: A549 NSCLC xenograft model, toxicity (body weight, deaths). The following applies: single agent. An excerpt: Female BALB/c nu/nu mice were obtained from Charles River Laboratories (Wilmington, Mass.). The mice were housed in an AALAC approved facility and received standard care in accordance with institutional policy (fully compliant with both NIH and Roche Animal Care and Use Committee guidelines).
Compound II was microprecipitated with an ionic polymer, Eudragit L-100-55, using a solvent extraction method. Eudragit L100-55 (described in USP/NF as “Methacrylic Acid Copolymer”) is an anionic copolymer based on methacrylic acid and ethyl acrylate. The ratio of drug to polymer in the final formulation was 50% w/w Compound II and 50% w/w Eudragit L100-55. For oral administration, the formulated Compound II or pure Eudragit L100-55 (administered to vehicle control groups) was suspended in 0.2% CMC (carboxy-methyl cellulose) solution (Aqualon Hercules, Inc., Parlin, N.J.). The CMC solution was added immediately prior to dosing to animals. Gemzar® (Lilly, Indianapolis, Ind.) was applied to a 40 micron high performance Whatman C-18 column. The column was eluted at 60 ml/min for 50 minutes with water, followed by elution with 40% CH3CN/water until UV clear. The solution was then evaporated and lyophilized.
Weight loss was graphically represented as percent change in mean group body weight, using the formula: […]
where ‘W’ represents mean body weight of the treated group at a particular day, and ‘W0’ represents mean body weight of the same treated group at initiation of treatment.

The next data set has as its system H1299 cells. The data set is described as follows: Tetrazolium dye (MTT) proliferation assay, H1299. Format: cell-based. The settings on record: Homo sapiens, NCI-H1299; MTT assay using H1299 cells. On the procedure: H1299 cells were obtained from the National Cancer Institute. A549 cells were purchased from ATCC. The cells were grown in a subconfluent condition to maintain a logarithmic growth phase. The cells were dislodged for passage using trypsin-EDTA (0.05% and 0.53 mM, respectively).
Cellular proliferation was evaluated by the tetrazolium dye assay. Cells from exponentially growing cultures were plated at the appropriate seeding density in the optimal medium to give logarithmic growth over the course of the assay. Plates were incubated overnight at 37° C. in a humidified CO2 atmosphere to allow for recovery from trypsinization before beginning the assay. […] The plates were returned to 37° C. and assayed for proliferation by MTT (3-(4,5-dimethyl-thiazole-2-yl)-2,5-diphenyl-2H-tetrazolium bromide at time points that would allow for at least three population doublings in the untreated control cultures. MTT was added to each well to yield a final concentration of 1 mg/ml and the plates were returned to 37° C. for 2.5 hours. Following incubation, the MTT-containing medium was removed by aspiration and the resulting formazan metabolite was solubilized in 50 μl ethanol. Absorbances were read at a wavelength of 570 nm with a 650 nm reference. Percent inhibition was calculated using the formula: [formula]

Take `Cn1cc(C2=C(c3cn(C)c4cc([N+](=O)[O-])ccc34)C(=O)NC2=O)c2ccccc21` [Compound II]: the figures for the “Tumor Volume (Mean ± SEM) (Day 30)” value with A549 NSCLC Xenograft (CII 50 mg/kg PO), in the data set with A549 NSCLC Xenograft (CII 100 mg/kg PO) and in the data set on A549 NSCLC Xenograft (CII 200 mg/kg PO) were 104 ± 18 mm3, 148 ± 28 mm3 and 99 ± 17 mm3, respectively. The entries for the “% T/C (Day 47)” value with A549 NSCLC Xenograft (CII 50 mg/kg PO), in the data set with A549 NSCLC Xenograft (CII 100 mg/kg PO) and with A549 NSCLC Xenograft (CII 200 mg/kg PO) were 50%, 29% and 18%, respectively. Moreover, the “Tumor Volume (Mean ± SEM) (Day 47)” value is 217 ± 32 mm3 in the data set on A549 NSCLC Xenograft (CII 50 mg/kg PO), 213 ± 35 mm3 with A549 NSCLC Xenograft (CII 100 mg/kg PO) and 141 ± 21 mm3 in the data set on A549 NSCLC Xenograft (CII 200 mg/kg PO). Further, the “Drug Related Deaths” value in data set [1] (CII 50 mg/kg PO), in data set [1] (CII 100 mg/kg PO) and in data set [1] (CII 200 mg/kg PO) was 0% in each case.

For the molecule `Nc1ccn([C@@H]2O[C@H](CO)[C@@H](O)C2(F)F)c(=O)n1` [Gemcitabine, gemcitabine], the “Tumor Volume (Mean ± SEM) (Day 30)” value in the data set with A549 NSCLC Xenograft (G 30 mg/kg IP) came out at 97 ± 15 mm3; with A549 NSCLC Xenograft (G 60 mg/kg IP) it was 111 ± 17 mm3; in the data set on A549 NSCLC Xenograft (G 120 mg/kg IP) it was 98 ± 20 mm3. For the same molecule, the “% T/C (Day 47)” value amounted to 72% in the data set with A549 NSCLC Xenograft (G 30 mg/kg IP), 49% with A549 NSCLC Xenograft (G 60 mg/kg IP) and 61% in the data set on A549 NSCLC Xenograft (G 120 mg/kg IP). The “Tumor Volume (Mean ± SEM) (Day 47)” value came out at 210 ± 44 mm3 with A549 NSCLC Xenograft (G 30 mg/kg IP), 188 ± 27 mm3 in the data set with A549 NSCLC Xenograft (G 60 mg/kg IP) and 193 ± 36 mm3 in the data set on A549 NSCLC Xenograft (G 120 mg/kg IP). Besides, the “Drug Related Deaths” value in data set [1] (G 30 mg/kg IP), in data set [1] (G 60 mg/kg IP) and in data set [1] (G 120 mg/kg IP) was 0% throughout. Further, in the data set with H1299 cells, the IC50 was found to be 3.8 nM. This molecule yielded an IC90 in the data set on H1299 cells of 6 nM.

These data come from US20030139373A1, “Method for cancer therapy” (priority 2001, published 2003).
